For orientation: IC50 means the concentration needed to halve the response being measured. Low readings indicate greater potency, high ones weaker potency. The pKa is the pH at which an ionisable group is half protonated. A high value points to a group that holds its proton tightly. A word on the logD: it is the decadic logarithm of the distribution of all forms, ionised or not, between an organic phase and buffer at a given pH. A higher logD goes with a more lipophilic compound. One may read the logP as a log measure of how a compound divides between an organic and an aqueous phase. High values mean higher lipophilicity, low ones lower lipophilicity.

The target of one data set is Acetylcholinesterase (Homo sapiens, UniProt P22303).
Data set [1] can be described thus: physchem.
Description: Compound was evaluated for its acid dissociation constant
The nature of data set [2]: physchem. The following applies: buffer, pH 7.5.
Description: Lipophilic dissociation constant is determined as a measure of partitioning of neutral molecules at pH 7.5
A short description of data set [3]: physchem. The following applies: octanol/water.
Description: Partition coefficient (logP)

Sequence of Acetylcholinesterase (P22303 whole entry): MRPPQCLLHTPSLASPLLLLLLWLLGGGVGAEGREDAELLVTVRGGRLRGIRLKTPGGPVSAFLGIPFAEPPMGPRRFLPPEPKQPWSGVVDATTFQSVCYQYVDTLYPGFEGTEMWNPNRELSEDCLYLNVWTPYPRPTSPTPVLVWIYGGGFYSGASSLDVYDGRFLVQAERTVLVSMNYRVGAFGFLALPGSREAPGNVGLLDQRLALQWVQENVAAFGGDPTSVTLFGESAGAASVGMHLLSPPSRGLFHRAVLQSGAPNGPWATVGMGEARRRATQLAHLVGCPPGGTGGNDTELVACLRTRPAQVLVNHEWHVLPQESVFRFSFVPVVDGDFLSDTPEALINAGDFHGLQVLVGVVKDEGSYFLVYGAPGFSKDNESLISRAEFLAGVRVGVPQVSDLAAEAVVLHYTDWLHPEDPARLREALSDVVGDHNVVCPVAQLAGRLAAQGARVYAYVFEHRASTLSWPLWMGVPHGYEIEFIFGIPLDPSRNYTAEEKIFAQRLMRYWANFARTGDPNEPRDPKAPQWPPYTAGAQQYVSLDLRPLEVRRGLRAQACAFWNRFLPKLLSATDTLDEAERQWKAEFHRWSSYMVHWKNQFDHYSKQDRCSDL
Description for Acetylcholinesterase: In vitro inhibition of acetylcholinesterase isolated from human erythrocytes.

On Acetylcholinesterase, `Nc1c2c(nc3ccc(Cl)cc13)OCCC2` gave an IC50 of 9810 nM.

`Nc1c2c(nc3c1CCC3)CCCC2` [IPIDACRINE] had a pKa in “physchem [1]” of 10.2.

Take `COc1cccc2nc3c(c(N)c12)CCCC3`: the IC50 on Acetylcholinesterase was determined as 615 nM. Besides, the pKa in “physchem [1]” was found to be 10.4.

For the compound `Cc1cccc2nc3c(c(N)c12)CCCO3`, the logD in “physchem [2]” was found to be 1.63. This compound also came in with a logP in “physchem [3]” of 2.28. In addition, inhibition against Acetylcholinesterase was half-maximal at 150 nM (IC50). In addition, the pKa in “physchem [1]” was determined as 8.06.

Take `Nc1c2c(nc3ccc(Cl)cc13)CCCC2`: at Acetylcholinesterase, the IC50 came out at 3680 nM.

For the compound `Nc1c2c(nc3ncccc13)OCCC2`, at Acetylcholinesterase, the IC50 amounted to 6260 nM. Besides, the pKa in the data set “physchem [1]” turned out to be 6.4.

As for `Nc1c2c(nc3cnccc13)CCCC2`, at Acetylcholinesterase, it took 2600 nM to reach half-maximal inhibition (IC50). The compound further came in with a pKa in “physchem [1]” of 7.3.

At Acetylcholinesterase, `Nc1c2c(nc3ncccc13)CCCC2` had an IC50 of 429 nM. In the data set “physchem [1]”, this compound returned a pKa of 8.8.

In turn, `Nc1c2c(nc3c1CCCO3)CCC2` displayed an IC50 on Acetylcholinesterase of 1120 nM. Besides, the pKa in “physchem [1]” came to 7.8.

`Nc1c2c(nc3c1CCCO3)CCCC2` registered a half-maximal inhibitory concentration (IC50) at Acetylcholinesterase of 455 nM. For the same compound, in the data set “physchem [1]”, the pKa was found to be 7.8.

For `Nc1c2c(nc3cnccc13)OCCC2`, at Acetylcholinesterase, it took 42 nM to reach half-maximal inhibition (IC50). Besides, the pKa in the data set “physchem [1]” was 5.6.

On to `Nc1c2c(nc3c1CCCC3)CCCC2` [OCTAAMINOACRIDINE], for which the IC50 against Acetylcholinesterase was 360 nM. In “physchem [1]”, this compound had a pKa of 11.

`Nc1c2c(nc3cccc(Cl)c13)OCCC2` yielded an IC50 on Acetylcholinesterase of 313 nM. In addition, in “physchem [1]”, the pKa was determined as 6.6.

At Acetylcholinesterase, `Nc1c2c(nc3cccc(F)c13)OCCC2` displayed an IC50 of 335 nM. Further, the pKa in the data set “physchem [1]” is 6.9.

`Cc1cccc2nc3c(c(N)c12)CCCC3` came in with an IC50 against Acetylcholinesterase of 99 nM. In addition, in “physchem [1]”, the pKa is 9.98.

`Nc1c2c(nc3ccccc13)OCCC2` registered a logD in the data set “physchem [2]” of 1.37. Further, in the data set “physchem [3]”, the logP worked out at 1.86. The compound also returned an IC50 against Acetylcholinesterase of 266 nM. This compound also had a pKa in the data set “physchem [1]” of 7.8.

`Nc1c2c(nc3cccc(Cl)c13)CCCC2`: the IC50 at Acetylcholinesterase worked out at 39 nM. This compound gave a pKa in the data set “physchem [1]” of 9.3.

For `COc1cccc2nc3c(c(N)c12)CCCO3`, on Acetylcholinesterase, the IC50 worked out at 606 nM. The compound further gave a pKa in the data set “physchem [1]” of 8.11.

Take `Nc1c2c(nc3cccc(F)c13)CCCC2`: the IC50 against Acetylcholinesterase is 78 nM. This compound also showed a pKa in the data set “physchem [1]” of 9.1.

The values above are taken from ChEMBL document CHEMBL1126001, “Physical parameters for brian uptake: optimizing log P, log D and pKa of T H A” (Bioorg Med Chem Lett, 1991).
